The source of these data is PubChem BioAssay (NCI).

Test systems include SNB-75 CNS; UO-31 renal; ACHN renal; KM12 colon; UACC-257 melanoma; SF-539 CNS; SF-295 CNS; OVCAR-8 ovarian; K-562 leukemia; LOX IMVI melanoma.
Test in all cases: inhibition of tumour cell growth, NCI panel, 48 h

The structures appear in SMILES notation.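 In this assay, cells in 96-well plates receive the compound at five concentrations for 48 hours. Endpoints are linearly interpolated between the surrounding concentrations. GI50 is the concentration that inhibits growth by half. The concentration for full growth arrest is given as TGI.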 Where only a bound is given, the exact number is not on record here.

As for `COc1cnc2c(c1)C(=O)c1c-2n(CCCN2CCNCC2)c(=O)c2cc([N+](=O)[O-])ccc12`, the GI50 in the assay with SNB-75 CNS was 0.429 µM; in the assay with UO-31 renal, 0.249 µM; in the assay with ACHN renal, 0.117 µM; with KM12 colon, 0.38 µM; in the assay with UACC-257 melanoma, 3.49 µM; in the assay on SF-539 CNS, 0.354 µM. For the same molecule, the GI50 in the assay with SF-295 CNS is 0.126 µM; in the assay on OVCAR-8 ovarian, 0.314 µM. The TGI worked out at 1.97 µM in the assay on SNB-75 CNS; 1.7 µM in the assay with UO-31 renal; 1.22 µM in the assay with ACHN renal; 1.77 µM in the assay on KM12 colon; 24.1 µM with UACC-257 melanoma; 1.47 µM in the assay with SF-539 CNS. The TGI worked out at 1.07 µM in the assay on SF-295 CNS and 2.29 µM with OVCAR-8 ovarian.
With `CCOC(=O)C(C(O)c1ccc([N+](=O)[O-])cc1)P(=O)(OCC)OCC` (stereo unspecified), the TGI in the assay on SNB-75 CNS, in the assay on ACHN renal, with K-562 leukemia, in the assay with KM12 colon, in the assay with LOX IMVI melanoma and in the assay on SF-539 CNS was more than 100 µM in each case. The TGI in the assay with SF-295 CNS and with OVCAR-8 ovarian was more than 100 µM in each case.
As to `CC(=O)O[C@H]1CC2C=CC3C(CCC31)O2` (stereo partly specified), the TGI in the assay with SNB-75 CNS, in the assay with UO-31 renal, with ACHN renal, in the assay on K-562 leukemia, in the assay with LOX IMVI melanoma and in the assay with OVCAR-8 ovarian was more than 100 µM in each case.
In the case of `CCN(CC)CCn1c2ccccc2c(=O)c2c(OC)ccc(OC)c21`, the TGI in the assay on UO-31 renal, in the assay on ACHN renal, in the assay with K-562 leukemia, in the assay on KM12 colon, with UACC-257 melanoma and in the assay with LOX IMVI melanoma was more than 100 µM in each case. Further, the TGI in the assay on SF-539 CNS, in the assay on SF-295 CNS and in the assay on OVCAR-8 ovarian was more than 100 µM in each case.
On to `C/C(=N/Nc1nc(C)cc(=O)[nH]1)C(=O)O`, for which the TGI in the assay with SNB-75 CNS, in the assay with UO-31 renal, in the assay with ACHN renal, with K-562 leukemia, with KM12 colon and with UACC-257 melanoma was more than 100 µM each time. Moreover, the TGI with LOX IMVI melanoma, with SF-295 CNS and with OVCAR-8 ovarian was more than 100 µM in each case.
Take `COC[C@H](C)N=CN1CCc2ccccc2C1(Cc1ccccc1)Cc1ccccc1`: the TGI amounted to 43 µM in the assay with SNB-75 CNS; 33 µM in the assay on UO-31 renal; 59.8 µM in the assay with ACHN renal; 29.3 µM with K-562 leukemia; 27.3 µM in the assay on KM12 colon; 28.3 µM with UACC-257 melanoma. Moreover, the TGI turned out to be 33.6 µM in the assay with SF-539 CNS, 28.3 µM in the assay with SF-295 CNS and 28.8 µM in the assay with OVCAR-8 ovarian.
As to `CCCCCCCC(=O)[O][Hg][CH2]C1COC([CH2][Hg][O]C(=O)CCCCCCC)CO1` (stereo unspecified), the GI50 with SNB-75 CNS was 15.3 µM; in the assay on ACHN renal it was 13.9 µM; in the assay with K-562 leukemia, 2.09 µM; in the assay on KM12 colon, 16.3 µM; with SF-539 CNS, 17.5 µM; with SF-295 CNS, 19 µM. Moreover, the GI50 with OVCAR-8 ovarian is 19.8 µM. Moreover, the TGI in the assay on SNB-75 CNS was 34.6 µM; in the assay with ACHN renal it was 26.9 µM; in the assay on K-562 leukemia, more than 100 µM; with KM12 colon it was 30.6 µM; in the assay with SF-539 CNS it was 37.4 µM; with SF-295 CNS, 36.5 µM. Besides, the TGI in the assay on OVCAR-8 ovarian was 40.1 µM.
Turning to `Fc1ccc(Nc2nc3ccccc3c3occc23)cc1`, the GI50 in the assay on UO-31 renal is 12.4 µM; in the assay on ACHN renal, 1.4 µM; in the assay with K-562 leukemia, 3.66 µM; in the assay on KM12 colon, 1.9 µM; with UACC-257 melanoma, 13.8 µM; in the assay on LOX IMVI melanoma it was 3.41 µM. Besides, the results for the GI50 in the assay with SF-539 CNS, in the assay on SF-295 CNS and with OVCAR-8 ovarian were 19.3 µM, 3.39 µM and 11.2 µM, respectively. The TGI is 27.8 µM with UO-31 renal; 15.8 µM in the assay on ACHN renal; more than 100 µM with K-562 leukemia; 6.23 µM in the assay with KM12 colon; 28.3 µM in the assay on UACC-257 melanoma; 17.9 µM in the assay on LOX IMVI melanoma. The TGI in the assay with SF-539 CNS came to 33.7 µM; in the assay with SF-295 CNS, 13.1 µM; with OVCAR-8 ovarian it was 31.5 µM.
As to `C1C[OH+]CC[OH+]CCNCC[OH+]CC[OH+]CCN1.Cl.[Cl-].[Pt+4]`, the GI50 in the assay with UO-31 renal, in the assay with ACHN renal, in the assay on K-562 leukemia, with LOX IMVI melanoma, with SF-539 CNS and in the assay on SF-295 CNS was more than 100 µM in each case. For the same molecule, the GI50 in the assay on OVCAR-8 ovarian was more than 100 µM. Besides, the TGI with UO-31 renal, in the assay on ACHN renal, in the assay on K-562 leukemia, in the assay on LOX IMVI melanoma, with SF-539 CNS and in the assay with SF-295 CNS was more than 100 µM throughout. This molecule had a TGI with OVCAR-8 ovarian of more than 100 µM.
Take `COc1ccc(-c2cc(=O)c3c(O)cc(O)cc3o2)c(OC)c1OC`: the TGI with SNB-75 CNS, in the assay with K-562 leukemia, in the assay on KM12 colon, in the assay on UACC-257 melanoma, in the assay on LOX IMVI melanoma and in the assay on SF-539 CNS was more than 100 µM each time. Also, the TGI in the assay on SF-295 CNS is more than 100 µM.
Regarding `COc1cc(/C=C2\C[C@H]3[C@@H]4CC=C5C[C@@H](OC(C)=O)CC[C@]5(C)[C@H]4CC[C@]3(C)[C@H]2OC(C)=O)ccc1OCCN1CCCC1`, the GI50 in the assay on UO-31 renal is 13.1 µM; in the assay with K-562 leukemia it was 4 µM; in the assay on KM12 colon, 8.81 µM; with UACC-257 melanoma it was 10.8 µM; in the assay with SF-539 CNS, 8.7 µM; in the assay with SF-295 CNS, 12.6 µM. Moreover, the GI50 with OVCAR-8 ovarian is 10.3 µM. Also, the TGI in the assay on UO-31 renal came to 28.9 µM; in the assay with K-562 leukemia, 12.6 µM; in the assay on KM12 colon, 17.7 µM; with UACC-257 melanoma it was 20.1 µM; with SF-539 CNS it was 17.3 µM; in the assay with SF-295 CNS, 25.4 µM. Further, in the assay with OVCAR-8 ovarian, the TGI was 21.4 µM.
Turning to `CCOC(=O)C(=O)Nc1ccccc1C(C)C`, the TGI with SNB-75 CNS, in the assay on UO-31 renal, in the assay on ACHN renal, in the assay with K-562 leukemia, in the assay with KM12 colon and with UACC-257 melanoma was more than 100 µM each time. The TGI with SF-539 CNS, with SF-295 CNS and in the assay on OVCAR-8 ovarian was more than 100 µM each time.
As for `CCOC1CC2OC(=O)C1C=C2C(=O)OC` (stereo unspecified), the TGI with UO-31 renal was more than 100 µM; in the assay on ACHN renal, more than 100 µM; in the assay with K-562 leukemia, 83.3 µM; in the assay with KM12 colon, more than 100 µM; in the assay with UACC-257 melanoma it was 74.2 µM; with LOX IMVI melanoma, more than 100 µM. Besides, the figures for the TGI in the assay on SF-539 CNS and in the assay on SF-295 CNS were 68.4 µM and more than 100 µM, respectively.
